Test results: PubChem BioAssay (NCI)
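Each compound was tested at five concentrations against cells in 96-well plates for 48 hours. GI50 marks 50% less growth. TGI: total growth inhibition.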

What was measured:
Test in all cases: DTP human tumour cell line panel, 48 h
HOP-92 NSCLC = tested on: HOP-92 NSCLC
HT29 colon = tested on: HT29 colon
CCRF-CEM leukemia = tested on: CCRF-CEM leukemia
ACHN renal = tested on: ACHN renal
HCT-116 colon = tested on: HCT-116 colon
HCT-15 colon = tested on: HCT-15 colon
SN12C renal = tested on: SN12C renal
TK-10 renal = tested on: TK-10 renal
A498 renal = tested on: A498 renal
NCI-H23 lung = tested on: NCI-H23 lung
OVCAR-4 ovarian = tested on: OVCAR-4 ovarian
CAKI-1 renal = tested on: CAKI-1 renal
UACC-257 melanoma = tested on: UACC-257 melanoma
NCI-H522 lung = tested on: NCI-H522 lung
HL-60(TB) leukemia = tested on: HL-60(TB) leukemia
MALME-3M melanoma = tested on: MALME-3M melanoma
LOX IMVI melanoma = tested on: LOX IMVI melanoma
UO-31 renal = tested on: UO-31 renal
MDA-MB-435 = tested on: MDA-MB-435
HOP-62 NSCLC = tested on: HOP-62 NSCLC
SF-268 CNS = tested on: SF-268 CNS
KM12 colon = tested on: KM12 colon
MDA-MB-231 breast = tested on: MDA-MB-231 breast
T-47D breast = tested on: T-47D breast
EKVX NSCLC = tested on: EKVX NSCLC
SK-MEL-2 melanoma = tested on: SK-MEL-2 melanoma
SK-MEL-28 melanoma = tested on: SK-MEL-28 melanoma
MDA-MB-468 breast = tested on: MDA-MB-468 breast
SF-295 CNS = tested on: SF-295 CNS
OVCAR-3 ovarian = tested on: OVCAR-3 ovarian
COLO 205 colon = tested on: COLO 205 colon
IGROV1 ovarian = tested on: IGROV1 ovarian
MOLT-4 leukemia = tested on: MOLT-4 leukemia
NCI-H226 lung = tested on: NCI-H226 lung
UACC-62 melanoma = tested on: UACC-62 melanoma
SF-539 CNS = tested on: SF-539 CNS
NCI-H460 lung = tested on: NCI-H460 lung
786-0 renal = tested on: 786-0 renal
BT-549 breast = tested on: BT-549 breast
SNB-19 CNS = tested on: SNB-19 CNS
SR leukemia = tested on: SR leukemia
MCF7 breast = tested on: MCF7 breast
RPMI-8226 leukemia = tested on: RPMI-8226 leukemia
DU-145 prostate = tested on: DU-145 prostate
OVCAR-5 ovarian = tested on: OVCAR-5 ovarian
K-562 leukemia = tested on: K-562 leukemia
SW-620 colon = tested on: SW-620 colon
NCI/ADR-RES ovarian = tested on: NCI/ADR-RES ovarian
HCC-2998 colon = tested on: HCC-2998 colon
U251 CNS = tested on: U251 CNS
A549 NSCLC = tested on: A549 NSCLC
SNB-75 CNS = tested on: SNB-75 CNS
SK-OV-3 ovarian = tested on: SK-OV-3 ovarian
RXF 393 renal = tested on: RXF 393 renal
M14 melanoma = tested on: M14 melanoma
PC-3 prostate = tested on: PC-3 prostate
OVCAR-8 ovarian = tested on: OVCAR-8 ovarian
HS 578T breast = tested on: HS 578T breast
SK-MEL-5 melanoma = tested on: SK-MEL-5 melanoma

Work on CN1CCN(c2ccc(Nc3nc(NCCCNC(=O)C4CCCCC4)c4sccc4n3)cc2)CC1 yielded a GI50 (HOP-92 NSCLC) of 10.6 µM, a TGI (HOP-92 NSCLC) of 34.3 µM and a GI50 (HT29 colon) of 4.28 µM. It also gave a TGI (HT29 colon) of 17 µM, a GI50 (CCRF-CEM leukemia) of 3.77 µM and a TGI (CCRF-CEM leukemia) of 37.6 µM. The GI50 (ACHN renal) was 15.6 µM, the TGI (ACHN renal) was 35.1 µM and the GI50 (HCT-116 colon) was 3.98 µM. It also gave a TGI (HCT-116 colon) of 18.5 µM, a GI50 (HCT-15 colon) of 5.77 µM and a TGI (HCT-15 colon) of 25.6 µM. The GI50 (SN12C renal) was 14.2 µM, the TGI (SN12C renal) was 29.4 µM and the GI50 (TK-10 renal) was 24.6 µM. The TGI (TK-10 renal) was 51.7 µM, the GI50 (A498 renal) was 22 µM and the TGI (A498 renal) was 37.7 µM. The GI50 (NCI-H23 lung) was 14.1 µM, the TGI (NCI-H23 lung) was 29.1 µM and the GI50 (OVCAR-4 ovarian) was 15.7 µM. The TGI (OVCAR-4 ovarian) was 57.7 µM, the GI50 (CAKI-1 renal) was 14.5 µM and the TGI (CAKI-1 renal) was 30.5 µM. For the same compound, the GI50 (UACC-257 melanoma) was 3.61 µM, the TGI (UACC-257 melanoma) was 14.9 µM and the GI50 (NCI-H522 lung) was 13 µM. It also gave a TGI (NCI-H522 lung) of 27 µM, a GI50 (HL-60(TB) leukemia) of 4.55 µM and a TGI (HL-60(TB) leukemia) of 23.3 µM. For the same compound, the GI50 (MALME-3M melanoma) was 7.31 µM, the TGI (MALME-3M melanoma) was 19.8 µM and the GI50 (LOX IMVI melanoma) was 10.7 µM. The TGI (LOX IMVI melanoma) was 23.1 µM, the GI50 (UO-31 renal) was 11.9 µM and the TGI (UO-31 renal) was 24.6 µM. For the same compound, the GI50 (MDA-MB-435) was 15.6 µM, the TGI (MDA-MB-435) was 30.8 µM and the GI50 (HOP-62 NSCLC) was 18.2 µM. The TGI (HOP-62 NSCLC) was 36.3 µM, the GI50 (SF-268 CNS) was 10.4 µM and the TGI (SF-268 CNS) was 40.7 µM. For the same compound, the GI50 (KM12 colon) was 19.4 µM, the TGI (KM12 colon) was 44.9 µM and the GI50 (MDA-MB-231 breast) was 13.2 µM. It also gave a TGI (MDA-MB-231 breast) of 30.8 µM, a GI50 (T-47D breast) of 11.4 µM and a TGI (T-47D breast) of 37.9 µM. It also gave a GI50 (EKVX NSCLC) of 15.8 µM, a TGI (EKVX NSCLC) of 33.9 µM and a GI50 (SK-MEL-2 melanoma) of 18.7 µM. The TGI (SK-MEL-2 melanoma) was 33.6 µM, the GI50 (SK-MEL-28 melanoma) was 6.24 µM and the TGI (SK-MEL-28 melanoma) was 19.5 µM. It also gave a GI50 (MDA-MB-468 breast) of 2.96 µM, a TGI (MDA-MB-468 breast) of 17.2 µM and a GI50 (SF-295 CNS) of 12.9 µM. The TGI (SF-295 CNS) was 26.3 µM, the GI50 (OVCAR-3 ovarian) was 16.2 µM and the TGI (OVCAR-3 ovarian) was 33.5 µM. It also gave a GI50 (COLO 205 colon) of 17.7 µM, a TGI (COLO 205 colon) of 38.2 µM and a GI50 (IGROV1 ovarian) of 14 µM. For the same compound, the TGI (IGROV1 ovarian) was 30.8 µM, the GI50 (MOLT-4 leukemia) was 3.19 µM and the TGI (MOLT-4 leukemia) was 20.8 µM. The GI50 (NCI-H226 lung) was 12.6 µM, the TGI (NCI-H226 lung) was 26.3 µM and the GI50 (UACC-62 melanoma) was 15.1 µM. For the same compound, the TGI (UACC-62 melanoma) was 28.6 µM, the GI50 (SF-539 CNS) was 3.15 µM and the TGI (SF-539 CNS) was 12.8 µM. For the same compound, the GI50 (NCI-H460 lung) was 14.6 µM, the TGI (NCI-H460 lung) was 30.8 µM and the GI50 (786-0 renal) was 10.8 µM. It also gave a TGI (786-0 renal) of 26.4 µM, a GI50 (BT-549 breast) of 13.3 µM and a TGI (BT-549 breast) of 27.3 µM. It also gave a GI50 (SNB-19 CNS) of 22.1 µM, a TGI (SNB-19 CNS) of 47.1 µM and a GI50 (SR leukemia) of 2.13 µM. The TGI (SR leukemia) was 6.3 µM, the GI50 (MCF7 breast) was 10 µM and the TGI (MCF7 breast) was 24 µM. The GI50 (RPMI-8226 leukemia) was 3.92 µM, the TGI (RPMI-8226 leukemia) was 19.9 µM and the GI50 (DU-145 prostate) was 14.9 µM. It also gave a TGI (DU-145 prostate) of 30.5 µM, a GI50 (OVCAR-5 ovarian) of 16.1 µM and a TGI (OVCAR-5 ovarian) of 34.6 µM. It also gave a GI50 (K-562 leukemia) of 2.72 µM, a TGI (K-562 leukemia) of 47 µM and a GI50 (SW-620 colon) of 17.3 µM. The TGI (SW-620 colon) was 36.4 µM, the GI50 (NCI/ADR-RES ovarian) was 21.1 µM and the TGI (NCI/ADR-RES ovarian) was 54.5 µM. For the same compound, the GI50 (HCC-2998 colon) was 13.8 µM, the TGI (HCC-2998 colon) was 26.9 µM and the GI50 (U251 CNS) was 4.64 µM. For the same compound, the TGI (U251 CNS) was 19.9 µM, the GI50 (A549 NSCLC) was 20.7 µM and the TGI (A549 NSCLC) was 80.8 µM. It also gave a GI50 (SNB-75 CNS) of 11.2 µM, a TGI (SNB-75 CNS) of 24.7 µM and a GI50 (SK-OV-3 ovarian) of 23.4 µM. For the same compound, the TGI (SK-OV-3 ovarian) was 59.2 µM, the GI50 (RXF 393 renal) was 5.49 µM and the TGI (RXF 393 renal) was 20 µM. It also gave a GI50 (M14 melanoma) of 4.23 µM, a TGI (M14 melanoma) of 16 µM and a GI50 (PC-3 prostate) of 12.4 µM. The TGI (PC-3 prostate) was 42.2 µM, the GI50 (OVCAR-8 ovarian) was 16 µM and the TGI (OVCAR-8 ovarian) was 36.7 µM. The GI50 (HS 578T breast) was 12.8 µM, the TGI (HS 578T breast) was 36.2 µM and the GI50 (SK-MEL-5 melanoma) was 8.82 µM. It also gave a TGI (SK-MEL-5 melanoma) of 21 µM.
